Data reported in patent US6228853A, “Pyrrolopyrrolone derivatives as inhibitors of neutrophil elastase” (Glaxo Wellcome Inc., priority 1997, dated 2001).
Structures can show the parent of a compound that is named as a salt.

Columns and labels:
[1] = target: T1, human neutrophil elastase (Homo sapiens, UniProt P08246); assay: In vitro assay of human neutrophil elastase; format: biochemical; details: in vitro elastase test; purified human neutrophil elastase 11.8 nM, pH 8.6, 15 min at 30° C., 0.6 mM MeO-succinyl-alanyl-alanyl-prolyl-valyl-p-nitroanilide
T1 sequence (P08246 30-267): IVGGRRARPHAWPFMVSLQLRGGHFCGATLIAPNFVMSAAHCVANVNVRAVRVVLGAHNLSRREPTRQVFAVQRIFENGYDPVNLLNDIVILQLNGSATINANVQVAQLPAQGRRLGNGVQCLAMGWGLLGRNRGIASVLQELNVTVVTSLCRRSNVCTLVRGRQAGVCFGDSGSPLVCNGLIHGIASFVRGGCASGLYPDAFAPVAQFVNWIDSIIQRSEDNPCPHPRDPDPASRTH
Method: In vitro assays of human neutrophil elastase Assay contents: 50 mM Tris/HCl (pH 8.6) 150 mM NaCl 11.8 nM purified human neutrophil elastase Suitable concentrations of compound under test diluted with water from a 10 mM stock solution in dimethylsulphoxide. Values above are final concentrations after the addition of substrate solution (see below). The mixture above is incubated for fifteen minutes at 30° C. at which time the remaining elastase activity is measured for 10 minutes in a BioTek 340i plate-reader, after the addition of 0.6 mM MeO-succinyl-alanyl-alanyl-prolyl-valyl-p-nitroanilide. The rate of increase in absorbance at 405 nm is proportional to elastase activity. Enzyme activity is plotted against concentration of inhibitor and an IC50 determined using curve fitting software.

[2] = target: T2, elastase (Homo sapiens, UniProt P08246); assay: Human whole blood elastase inhibition assay; format: cell-based; details: heparinised, 30 minutes at 37° C.
T2 construct: fresh, heparinised human whole blood; endogenous in cells; host or cells: leukocytes (neutrophils) of fresh heparinised human whole blood
T2 sequence (P08246 30-267): T1 sequence (P08246 30-267)
Method: Human whole blood elastase inhibition assay
Triplicate aliquots of fresh, heparinised human whole blood (200 μl) are added to appropriately diluted samples (10 μl) of compounds under test. […] Samples are mixed thoroughly by pipette, and are then incubated for 30 minutes at 37° C. Cold red cell lysis buffer (750 μl of 155 mM ammonium chloride, 0.12 mM EDTA, 10 mM potassium bicarbonate, pH 7.4) is then added. Tubes are capped, inverted several times, and maintained at 4° C. for 15 minutes, inverting every 5 minutes. After centrifugation at 250 g for 10 minutes, at 4° C., the resulting pelleted cells are washed. The wash is with saline (300 μl), followed by centrifugation at 100 g for 10 minutes at 4° C. Pellets are washed twice more, before resuspension of the final cell pellet in buffer (200 μl of 100 mM Tris, 300 mM NaCl, 1% (w/v) HTAB, pH 8.6). Samples are stored at -20° C. After freeze-thawing of the samples four times, elastase activity is determined by a calorimetric assay in 50 mM Tris, 150 mM NaCl, 0.6 mM MeO-Succ-Ala-Ala-Ala-Pro-Val-pNA at pH 8.6, measuring the rate of increase in absorbance at 405 nm.

[3] = system: intracellular elastase; assay: Oral in vivo hamster model using IL-8 induced lung infiltrates for assessment of intracellular elastase inhibition; details: in vivo hamster IL-8 test, at a dose of less than 10 mg/kg
Method: In vivo activity of inhibitors of human neutrophil elastase:
An oral in vivo model using IL-8 induced lung infiltrates for the assessment of intracellular elastase inhibition
Adult hamsters (100-150 g) are randomised into groups (n=4) and fasted overnight. Under gaseous anaesthetic (3% isofluorane) animals are dosed orally with 1 mL/100 g water as vehicle or containing predissolved compounds. Either at the same time, or subsequently under anaesthetic, animals are dosed intratracheally with 1 ug recombinant human IL-8 in 100 uL sterile saline. Six hours after IL-8 dosing animals are sacrificed using intraperitoneal pentobarbitone. The lungs are lavaged with 2×2.5 mL sterile saline and femurs are removed by dissection.
Intracellular elastase is prepared from neutrophils collected by lavage and from femoral bone marrow. This is achieved by sonication of the neutrophils and centrifugation to yield intracellular granules. These are disrupted by freeze/thawing and sonication. Elastase and myeloperoxidase assays are then performed on these samples to assess the efficacy of the compounds and to normalise for neutrophil recovery.

## CC(C)[C@H]1C(=O)N(S(C)(=O)=O)[C@H]2CCN(C(=O)C3CN(CC4CC4)C3)[C@H]12 (relative stereo) [Example 1, rel-(3R,3aR,6aS)-4-(1-CyclopropyImethyl-azetidine-3carbonyl)-3-isopropyl-1-methanesulfonyl-hexahydropyrrolo[3,2-b]pyrrol-2-one hydrochloride]
[1]
  IC50: 194 nM
[2]
  IC50: 5400 nM

## CC(C)[C@H]1C(=O)N(S(C)(=O)=O)[C@H]2CCN(C(=O)C3CN(Cc4ccccc4)C3)[C@H]12 (relative stereo) [Example 2, rel-(3R,3aR,6aS)-4-(1-Benzylazetidine-3-carbonyl)-3-isopropyl-1-methanesulfonyl-hexahydro-pyrrolo[3,2-b]pyrrol-2-one hydrochloride]
[1]
  IC50: 229 nM
[2]
  IC50: 810 nM

## CC(C)[C@H]1C(=O)N(S(C)(=O)=O)[C@H]2CCN(C(=O)C3CN(CC(C)(C)C)C3)[C@H]12.Cl (relative stereo) [Example 3, rel-(3R,3aR,6aS)-4-[1-(2,2-Dimethyl-propyl)-azetidine-3-carbonyl]-3-isopropyl-1-methanesulfonyl-hexahydro-pyrrolo[3,2-b]pyrrol-2-one hydrochloride]
[3]
  duration of action: at least 6 hours

## CC(C)[C@H]1C(=O)N(S(C)(=O)=O)[C@H]2CCN(C(=O)C3CN(Cc4c(Cl)cccc4Cl)C3)[C@H]12 (relative stereo) [Example 4, rel-(3R,3aR,6aS)-4-[1-(2,6-Dichloro-benzyl)-azetidine-3-carbonyl]-3-isopropyl-1-methanesulfonyl-hexahydropyrrolo[3,2-b]pyrrol-2-one hydrochloride]
[1]
  IC50: 210 nM
[2]
  IC50: 1200 nM

## CCCCN1CC(C(=O)N2CC[C@H]3[C@H]2[C@@H](C(C)C)C(=O)N3S(C)(=O)=O)C1 (relative stereo) [Example 5, rel-(3R,3aR,6aS)-4-(1-Butyazetidine-3-carbonyl)-3-isopropyl-1-methanesulfonyl-hexahydro-pyrrolo[3,2-b]pyrrol-2-one hydrochloride]
[1]
  IC50: 93 nM
[2]
  IC50: 1700 nM
